Measurements from patent publication EP4790066A1, “GLP-1R/GIPR/GCGR TRIPLE AGONIST ANALOGUE AND USE THEREOF” (Shenzhen Bay Laboratory, priority 2023, dated 2025).
*1 amine or outer side, *2 acyl side, *3 side chain or, on linkers, in order; H or OH if unused. Where a SMILES comes first, the peptide text is derived from it. Bridges are numbered along the chain shown (N, C = ends). [ ]: non-standard residue; d: D form. X1 = O=C(O)CCCCCCCCCCCCCCCCCCC(=O)N[C@@H](CCCCNC(=O)COCCOCCNC(=O)COCCOCCNC(=O)CCC(=O)N(CCNC(=O)C[*:1])CCNC(=O)C[*:2])C(=O)O; αMeL = CC(C)C[C@](C)(N)C(=O)O; Aib = CC(C)(N)C(=O)O

Assays:
Assay type in all cases: cell-based
[1] = target: T1, GLP-1R (Homo sapiens, UniProt P43220); assay: CreLuc method (CRE-luciferase reporter), HEK293/pGM-CREB-L-Luc/GLP-1R pool; conditions: 6 h incubation, read-out: EC50 (pM) for each receptor GLP-1R
T1 construct: expressed in transfected cells
T1 sequence (P43220 24-463, species assumed): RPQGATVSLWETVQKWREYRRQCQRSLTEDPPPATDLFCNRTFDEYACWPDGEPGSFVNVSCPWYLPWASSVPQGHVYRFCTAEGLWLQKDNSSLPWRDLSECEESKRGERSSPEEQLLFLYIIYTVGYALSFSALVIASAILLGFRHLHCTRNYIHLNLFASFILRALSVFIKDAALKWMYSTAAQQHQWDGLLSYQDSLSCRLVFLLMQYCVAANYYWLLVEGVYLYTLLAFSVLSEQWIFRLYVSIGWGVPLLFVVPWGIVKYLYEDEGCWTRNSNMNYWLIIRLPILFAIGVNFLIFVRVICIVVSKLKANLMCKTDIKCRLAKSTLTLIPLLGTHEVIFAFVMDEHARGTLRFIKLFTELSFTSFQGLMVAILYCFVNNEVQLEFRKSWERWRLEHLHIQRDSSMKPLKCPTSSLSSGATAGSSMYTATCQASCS
Method: (§1) 1. Insulinotropic analogues can bind to the target receptor on the cell membrane, activate the cAMP response element (CRE), and initiate the expression of downstream luciferase. The expression level is positively correlated with the biological activity of the analogue being tested. After activation, luciferase substrate is added for chemiluminescence detection, and the luminescence intensity is determined to characterize the biological activity of the test compounds. Therefore, the target peptide derivatives (or polypeptide derivatives, i.e., TG1-TG94) prepared in Example 1 and Example 2 can be tested by the CreLuc method. The specific steps are as follows: The stably transfected cell lines HEK293/pGM-CREB-L-Luc/GLP-1R pool, HEK293/pGM-CREB-L-Luc/GIPR pool, and 293HEK/pGM-CREB-L-Luc/GCGR pool were constructed. […] The corresponding test cells were digested (1 min), dispersed by pipetting, and centrifuged (1000 rpm, 5 min). The culture medium was discarded, and the cells were resuspended in freestyle medium, centrifuged again, collected, and counted. The cells were then diluted to a cell density of 5 x 10^5 cells/mL and then added to the detection wells of a 384-well plate (40 µL/20,000 cells/well). Echo was used to add the corresponding analyte dilution series. The cell plate was incubated at 37°C and 5% CO2 for 6 h, then ONE-GLO (20 µL/well) was added for detection. It was kept in the dark for 3 min, then a chemiluminescent microplate reader was used for determination. The plate was read within 30 min, and the determination results were recorded. […] Table 3: EC50 values for target peptide derivatives

[2] = target: T2, GCGR (Homo sapiens, UniProt P47871); assay: CreLuc method (CRE-luciferase reporter), 293HEK/pGM-CREB-L-Luc/GCGR pool; conditions: 6 h incubation, read-out: EC50 (pM) for each receptor GCGR
T2 construct: expressed in transfected cells
T2 sequence (P47871 26-477, species assumed): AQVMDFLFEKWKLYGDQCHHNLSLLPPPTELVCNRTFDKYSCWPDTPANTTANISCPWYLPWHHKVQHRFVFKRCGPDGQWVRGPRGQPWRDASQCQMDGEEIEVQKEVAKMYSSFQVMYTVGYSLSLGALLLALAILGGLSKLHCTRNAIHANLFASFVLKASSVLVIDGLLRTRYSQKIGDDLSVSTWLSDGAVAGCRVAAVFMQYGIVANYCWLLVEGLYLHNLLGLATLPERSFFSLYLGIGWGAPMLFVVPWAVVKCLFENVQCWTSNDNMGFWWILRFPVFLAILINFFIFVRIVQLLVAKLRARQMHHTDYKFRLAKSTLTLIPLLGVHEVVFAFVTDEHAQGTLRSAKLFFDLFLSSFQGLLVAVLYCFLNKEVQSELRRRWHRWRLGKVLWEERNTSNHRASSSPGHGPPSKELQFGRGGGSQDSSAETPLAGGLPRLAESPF
Method: as §1

[3] = target: T3, GIPR (Homo sapiens, UniProt P48546); assay: CreLuc method (CRE-luciferase reporter), HEK293/pGM-CREB-L-Luc/GIPR pool; conditions: 6 h incubation, read-out: EC50 (pM) for each receptor GIPR
T3 construct: expressed in transfected cells
T3 sequence (P48546 22-466): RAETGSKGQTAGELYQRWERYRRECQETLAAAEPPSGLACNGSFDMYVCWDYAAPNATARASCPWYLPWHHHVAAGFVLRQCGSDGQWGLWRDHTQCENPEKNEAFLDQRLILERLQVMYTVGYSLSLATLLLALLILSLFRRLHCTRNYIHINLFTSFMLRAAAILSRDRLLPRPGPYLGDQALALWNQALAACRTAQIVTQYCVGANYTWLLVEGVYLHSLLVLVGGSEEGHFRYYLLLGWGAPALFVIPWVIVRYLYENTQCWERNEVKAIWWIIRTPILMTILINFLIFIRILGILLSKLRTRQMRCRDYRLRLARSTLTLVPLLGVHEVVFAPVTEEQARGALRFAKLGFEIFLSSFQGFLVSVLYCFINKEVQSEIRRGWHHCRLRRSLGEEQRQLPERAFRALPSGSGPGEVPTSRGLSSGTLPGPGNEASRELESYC
Method: as §1

In the case of CC[C@H](C)[C@H](NC(=O)[C@H](CO)NC(=O)[C@H](Cc1ccc(O)cc1)NC(=O)[C@H](CC(=O)O)NC(=O)[C@H](CO)NC(=O)[C@@H](NC(=O)[C@H](Cc1ccccc1)NC(=O)[C@@H](NC(=O)CNC(=O)[C@H](Cc1c[nH]cn1)NC(=O)C(C)(C)NC(=O)[C@@H](N)Cc1c[nH]cn1)[C@@H](C)O)[C@@H](C)O)C(=O)N[C@@H](Cc1ccc(O)cc1)C(=O)N[C@H]1CSCC(=O)NCCN(C(=O)CCC(=O)NCCOCCOCC(=O)NCCOCCOCC(=O)NCCCC[C@H](NC(=O)CCCCCCCCCCCCCCCCCCC(=O)O)C(=O)O)CCNC(=O)CSC[C@@H](C(=O)N[C@@H](Cc2ccccc2)C(=O)N[C@H](C(=O)N[C@@H](CCC(N)=O)C(=O)N[C@@H](Cc2c[nH]c3ccccc23)C(=O)N[C@@H](CC(C)C)C(=O)N[C@@H](CC(C)C)C(=O)N[C@@H](CCC(=O)O)C(=O)NCC(=O)NCC(=O)N2CCC[C@H]2C(=O)N[C@@H](CO)C(=O)N[C@@H](CO)C(=O)NCC(=O)N[C@@H](C)C(=O)N2CCC[C@H]2C(=O)N2CCC[C@H]2C(=O)N2CCC[C@H]2C(=O)N[C@@H](CO)C(N)=O)C(C)C)NC(=O)C(C)(C)NC(=O)[C@H](C)NC(=O)[C@H](Cc2ccc(O)cc2)NC(=O)[C@H](CCCNC(=N)N)NC(=O)[C@H](CCCCN)NC(=O)[C@H](CCC(=O)O)NC1=O [TG8], the EC50 [1] is reported as 243 pM, the EC50 [2] is reported as 836 pM and the EC50 [3] is reported as 426 pM.
With CC[C@H](C)[C@@H]1NC(=O)[C@H](Cc2ccccc2)NC(=O)[C@@H](NC(=O)[C@@H](C)NC(=O)[C@H](CCC(N)=O)NC(=O)[C@H](C)NC(=O)[C@H](CCCCNC(C)=O)NC(=O)[C@H](CCCCN)NC(=O)[C@H](CC(=O)O)NC(=O)[C@H](CC(C)C)NC(=O)[C@](C)(CC(C)C)NC(=O)[C@@H](NC(=O)[C@H](CO)NC(=O)[C@H](Cc2ccc(O)cc2)NC(=O)[C@H](CC(=O)O)NC(=O)[C@H](CO)NC(=O)[C@@H](NC(=O)[C@H](Cc2ccccc2)NC(=O)[C@@H](NC(=O)CNC(=O)[C@H](CCC(N)=O)NC(=O)C(C)(C)NC(=O)[C@@H](N)Cc2ccc(O)cc2)[C@@H](C)O)[C@@H](C)O)[C@@H](C)CC)CSCC(=O)NCCN(C(=O)CCC(=O)NCCOCCOCC(=O)NCCOCCOCC(=O)NCCCC[C@H](NC(=O)CCCCCCCCCCCCCCCCCCC(=O)O)C(=O)O)CCNC(=O)CSC[C@@H](C(=O)NCC(=O)NCC(=O)N2CCC[C@H]2C(=O)N[C@@H](CO)C(=O)N[C@@H](CO)C(=O)NCC(=O)N[C@@H](C)C(=O)N2CCC[C@H]2C(=O)N2CCC[C@H]2C(=O)N2CCC[C@H]2C(=O)N[C@@H](CO)C(N)=O)NC(=O)[C@H](CC(C)C)NC(=O)[C@H](CC(C)C)NC(=O)[C@H](Cc2ccc(O)cc2)NC(=O)[C@H](CCC(=O)O)NC1=O [TG31] (H-Y[Aib]QGTFTSDYSI[αMeL]LDKK(Ac)AQ[dA]CFIEYLLCGGPSSGAPPPS-NH2; linker 21-28 via X1) the EC50 [1] was 32.7 pM, the EC50 [2] was 440 pM and the EC50 [3] was 11.4 pM.
